Source: patent publication EP0084757A1, “Trisubstituted diaza derivatives” (CIBA-GEIGY AG, priority 1982, dated 1983)
Values after ≈ are worked out from the molar mass of the structure shown.

System: mit Crotonöl induzierten Rattenohroedems
Experiment: Inhibition of croton oil-induced rat ear oedema (method of Tonelli and Thibault)
Format: in vivo, Normalratte
Conditions: inhibition of croton oil-induced ear oedema in the normal rat; local application
Method: Diese Eigenschaft lässt sich beispielsweise nach der von G. Tonelli, L. Thibault, Endocrinology 77, 625 (1965) entwickelten Methode durch Hemmung des mit Crotonöl induzierten Rattenohroedems bei der Normalratte im Dosisbereich von etwa 1 bis etwa 100 mg/ml nachweisen.

## COC(Cc1nc(-c2ccccc2)c(-c2cccnc2)[nH]1)OC [2-[4(5)-Phenyl-5(4)-(3-pyridyl)-imidazol-2-yl]-acetaldehyd-dimethylacetal]
  ED50-Wert: 18 mg/mL (≈ 58.2 mM)
